Experimental data from patent US6143719A, “Bradykinin analogs as selective thrombin inhibitors” (The Regents of the University of Michigan, priority 1996, dated 2000).
Where two headings read alike, the source gives them in different places. Ends that are not written are not given here.

Tested on: platelets
Format: cell-based, human
Settings: washed platelets, α-thrombin 1 nM
Protocol: Fresh whole blood was collected and mixed with 0.013 M sodium citrate and platelet-rich plasma was prepared according to the method of Meloni et al., J. Biol. Chem. 266, 6786, 1991. Washed platelets were prepared by gel filtration over Sepharose 2B columns in Hepes-Tyrode's buffer (0.137 M NaCl, 3 mM KCl, 0.4 mM Na H2 PO4, 12 mM NaHCO3, 1 mM MgCl2, 14.7 mM Hepes containing 20 mM glucose and 0.2% bovine serum albumin, pH 7.35). Platelets for aggregation and secretion studies were incubated according to the method of Schmaier et al., Blood 56, 1013, 1980 with 5-[^14 C]hydroxytryptamine for 30 min at 37° C. The washed platelets (2×10^8 /ml, final concentration radiolabeled with 5-[^14 C]hydroxytryptamine) were added to a cuvette of an aggregometer (Chronolog Corp., Havertown, Pa.), standardized using the protocol of Meloni et al., supra. After the addition of ZnCl2, final concentration 50 μM, purified HK (1 μM) or various concentrations of the peptides (0.1 to 3 mM) or buffer alone was added to the cuvette. Once the baseline stabilized, α-thrombin [0.125 U/ml (1 nM) final concentration] was then added to initiate platelet activation. Stirred platelets were allowed to incubate with o-thrombin and additions for 1 min. In other experiments, platelets were stimulated with TRAP (0.625 to 2.5 μM), ADP (1-5 μM)(Sigma), collagen (1.25 μg/ml) (Horm, Munich, Germany), or U-46619 (1 μM)(Calbiochem Behring, San Diego, Calif.). Additional experiments were performed with washed platelets stimulated with γ-thrombin (1 nM) in the presence of human fibrinogen (100 mg/dl). Both γ-thrombin and human fibrinogen were purchased from Enzyme Research Laboratories, South Bend, Ind. At the conclusion of the incubation, the entire platelet sample was centrifuged at 10,900 xg (Model E, Beckman Instruments, Palo Alto, Calif.) over a 0.135 mM formaldehyde, 5 mM EDTA solution (1 part of formaldehyde-EDTA to 4 parts of platelet suspension) and stored on ice until an aliquot of the supernatant was assayed for 5-[^14 C]hydroxytryptamine secretion. Percent secretion was determined by the ratio of the loss of 5-[^14 C]hydroxytryptamine in the supernatant of the agonist-treated specimen to the loss of 5-[^14 C]hydroxytryptamine in the supernatant of the platelet lysate after the value of the control supernatant (i.e., the level of 5-[^14 C]hydroxytryptamine in a unstimulated sample) was subtracted from both.

RPPGFSPFR [BK, bradykinin]
IC50 (read-out: IC50 AGGREGATION (inhibition of α-thrombin-induced platelet aggregation)): 250 µM | IC50 (read-out: IC50 SECRETION (inhibition of α-thrombin-induced platelet secretion)): 1000 µM
